Laboratory results taken from patent US8952024B2, “Herbicidal pyrimidone derivatives” (E I du Pont de Nemours and Company, priority 2009, dated 2015).

Experiments:
Assay in all cases: Test D pre-/postemergence plant response
Type in all cases: in vivo
Details in all cases: Postemergence
[1] = test system: Italian ryegrass (Lolium multiflorum)
In short: (§1)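 Greenhouse assay: sown seeds in loam/sand received preemergence spray; simultaneously, emerged seedlings (1- to 4-leaf, 2–18 cm) got postemergence spray of the same surfactant-containing formulation. Rating at 14–21 days by visual comparison with controls, 0 = no effect to 100 = complete control.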

[2] = test system: Russian thistle (Salsola kali)
In short: as §1

[3] = test system: Surinam grass (Brachiaria decumbens)
In short: as §1

[4] = test system: bermudagrass (Cynodon dactylon)
In short: as §1

[5] = test system: black mustard (Brassica nigra)
In short: as §1

[6] = test system: dayflower (Virginia (VA) dayflower, Commelina virginica)
In short: as §1

[7] = test system: field bindweed (Convolvulus arvensis)
In short: as §1

[8] = test system: groundsel (common groundsel, Senecio vulgaris)
In short: as §1

[9] = test system: guineagrass (Panicum maximum)
In short: as §1

[10] = test system: mallow (common mallow, Malva sylvestris)
In short: as §1

[11] = test system: quackgrass (Elytrigia repens)
In short: as §1

[12] = test system: sandbur (southern sandbur, Cenchrus echinatus)
In short: as §1

[13] = test system: signalgrass (broadleaf signalgrass, Brachiaria platyphylla)
In short: as §1

[14] = test system: spanishneedles (Bidens bipinnata)
In short: as §1

[15] = 125 g ai/ha, scale 0 to 100 (0 no effect, 100 complete control)
[16] = 250 g ai/ha, scale 0 to 100 (0 no effect, 100 complete control)
[17] = 62 g ai/ha, scale 0 to 100 (0 no effect, 100 complete control)

SMILES: CCCCn1c(-c2ccccc2)ncc(C(=O)C2=C(O)C3CCC(C3)C2=O)c1=O (stereo not shown) [Compound 240]
- Plant response rating, Ryegrass, Italian ([1]; 31 g ai/ha, scale 0 to 100): 0
- Plant response rating, Ryegrass, Italian [1, 15]: 35
- Plant response rating, Ryegrass, Italian [1, 16]: 35
- Plant response rating, Ryegrass, Italian [1, 17]: 35
- Plant response rating, Russian Thistle ([2]; 31 g ai/ha, scale 0 to 100): 35
- Plant response rating, Russian Thistle [2, 16]: 35
- Plant response rating, Russian Thistle [2, 17]: 35
- Plant response rating, Surinam Grass ([3]; 31 g ai/ha, scale 0 to 100): 70
- Plant response rating, Surinam Grass [3, 15]: 95
- Plant response rating, Surinam Grass [3, 16]: 95
- Plant response rating, Surinam Grass [3, 17]: 70
- Plant response rating, Bermudagrass ([4]; 31 g ai/ha, scale 0 to 100): 85
- Plant response rating, Bermudagrass [4, 15]: 95
- Plant response rating, Bermudagrass [4, 16]: 95
- Plant response rating, Bermudagrass [4, 17]: 95
- Plant response rating, Black Mustard ([5]; 31 g ai/ha, scale 0 to 100): 70
- Plant response rating, Black Mustard [5, 15]: 98
- Plant response rating, Black Mustard [5, 16]: 98
- Plant response rating, Black Mustard [5, 17]: 80
- Plant response rating, Dayflower, VA ([6]; 31 g ai/ha, scale 0 to 100): 35
- Plant response rating, Dayflower, VA [6, 15]: 70
- Plant response rating, Dayflower, VA [6, 16]: 75
- Plant response rating, Dayflower, VA [6, 17]: 60
- Plant response rating, Field Bindweed ([7]; 31 g ai/ha, scale 0 to 100): 60
- Plant response rating, Field Bindweed [7, 15]: 70
- Plant response rating, Field Bindweed [7, 16]: 70
- Plant response rating, Field Bindweed [7, 17]: 70
- Plant response rating, Groundsel ([8]; 31 g ai/ha, scale 0 to 100): 100
- Plant response rating, Groundsel [8, 15]: 100
- Plant response rating, Groundsel [8, 16]: 100
- Plant response rating, Groundsel [8, 17]: 100
- Plant response rating, Guineagrass ([9]; 31 g ai/ha, scale 0 to 100): 40
- Plant response rating, Guineagrass [9, 15]: 80
- Plant response rating, Guineagrass [9, 16]: 80
- Plant response rating, Guineagrass [9, 17]: 65
- Plant response rating, Mallow ([10]; 31 g ai/ha, scale 0 to 100): 10
- Plant response rating, Mallow [10, 15]: 60
- Plant response rating, Mallow [10, 16]: 60
- Plant response rating, Mallow [10, 17]: 40
- Plant response rating, Quackgrass ([11]; 31 g ai/ha, scale 0 to 100): 25
- Plant response rating, Quackgrass [11, 15]: 35
- Plant response rating, Quackgrass [11, 16]: 50
- Plant response rating, Quackgrass [11, 17]: 30
- Plant response rating, Sandbur ([12]; 31 g ai/ha, scale 0 to 100): 70
- Plant response rating, Sandbur [12, 15]: 90
- Plant response rating, Sandbur [12, 16]: 90
- Plant response rating, Sandbur [12, 17]: 70
- Plant response rating, Signalgrass ([13]; 31 g ai/ha, scale 0 to 100): 20
- Plant response rating, Signalgrass [13, 15]: 75
- Plant response rating, Signalgrass [13, 16]: 85
- Plant response rating, Signalgrass [13, 17]: 75
- Plant response rating, Spanishneedles ([14]; 31 g ai/ha, scale 0 to 100): 65
- Plant response rating, Spanishneedles [14, 15]: 75
- Plant response rating, Spanishneedles [14, 16]: 75
- Plant response rating, Spanishneedles [14, 17]: 65
